According to patent US20180344758A1, “Method of Treating Cancer with cGAMP or cGAsMP” (LIPOGEN LLC, priority 2014, published 2018):

How the values were obtained:
IFN-β reporter = IFN-β reporter assay in THP1 blue cells; settings: for inducing the expression of IFN-β reporter: THP1 blue cells, cyclic dinucleotides added to the culture media (FIG. 3A)
Text: (§1) To confirm that cGAMP can induce the expression of IFN-β, we stimulated human monocytes THP1 blue cells with cGAMP and other three cyclic dinucleotides added to the culture media.

IFN-β [1] = assay: IFN-β ELISA of THP1 culture supernatant; settings: for IFN-β levels in the culture supernatant by ELISA, response: THP1 cells (FIG. 3B); for IFN-β production: THP1 cells (FIGS. 13A-B)
Text: as §1

leukemia cell line SR [2] = assay: NCI60 antitumor screen, SR; settings: single dose of 10 μM
IFN-β [3] = settings: intravenous (i.v.) injection, 100 μg/mice, sera ELISA (FIG. 3C)
Text: FIG. 3C is an IFN-β ELISA of sera from mice injected with cGAMP.

[4] = test system: MMTV-BALB-neuT mouse mammary tumors; assay: MMTV-BALB-neuT spontaneous breast cancer model; settings: 0.1 mg per mouse intra-tumor once a day for three days; day 4 post-treatment; p value of 0.0009 (FIG. 15D)
Experimental: Comparisons were made between vehicle (veh.) and cGAMP treatment. The tumor growth was monitored for 4 days and growth rate was examined using serial caliper measurements. The tumor volume was calculated using the equation (a×b^2)/2 where “a” and “b” are length and width of the tumor, respectively. At the completion of the experiments, tumors were excised and statistical significance of differences in tumor volume was analyzed.

cytokines and chemokines = assay: Multiplex cytokine assays in THP1 cells
[5] = test system: renal cancer cell line A498; assay: MTT assay, A498; settings: FIG. 6B
Experimental: (§2) MTT solution: 5 mg/mL Thiazolyl Blue Tetrazolium Bromide (MTT) in PBS. The solution was filter sterilized after adding MTT and stored at −20° C.; MTT solvent: 4 mM HCl, 0.1% Nondet P-40 (NP40) in isopropanol. cGAMP or cGAsMP solutions: 10-30 mg/ml in PBS, filter sterilized using a 0.2 μm filter. • B. MTT Assay for Attaching Cancer Cell Lines SF539, U251, A498, and ACHN
On day one, one T-25 flask was trypsinized and 5 ml of complete media was added to the cells. The cells and media were centrifuged in a sterile 15 ml falcon tube at 300×g rcf in the swinging bucket rotor for 5 min. […] Cells were counted and recorded per ml. Cells were diluted (cv=cv) to 75,000 cells per ml with complete RPMI media. 100 μl of cells (7500 total cells) were added into each well of a 96 well plate and incubated overnight. 24 hours later, 100 μl of medium or cGAMP or cGAsMP solutions were added to each well. On the fifth day, 20 μl of 5 mg/ml MTT were added to each well. One set of wells with MTT but no cells served as a control. All steps were done aseptically. The wells were incubated for 3.5 hours at 37° C. in a CO2 incubator. Media was carefully removed, taking care not to disturb the cells. No PBS rinse was performed. 150 μl MTT solvent was added. The plate was covered with foil and cells agitated on orbital shaker for 15 min. The absorbance was measured at 590 nm using a plate reader. […]

[6] = test system: genome-wide gene expression; assay: Microarray analysis of gene expression in THP1 cells; settings: 20 μg/ml, 4 hours and 8 hours post treatment (FIG. 5)
[7] = test system: leukemia cell line CCRF-CEM; assay: MTT assay, CCRF-CEM; format: cell-based, human; settings: control leukemia cell line (FIG. 8)
NF-κB = NF-κB reporter assays
[8] = test system: CNS cancer cell line SF539; assay: NCI60 antitumor screen, SF539; settings: single dose of 10 μM
[9] = test system: IFN-β in renal cancer cell line A498; assay: IFN-β induction in A498; settings: FIG. 7A
[10] = test system: neuronal cancer cell line SF539; assay: MTT assay, SF539
Experimental: as §2
On day one, one T-25 flask was trypsinized and 5 ml of complete media was added to the cells. The cells and media were centrifuged in a sterile 15 ml falcon tube at 300×g rcf in the swinging bucket rotor for 5 min. […] Cells were counted and recorded per ml. Cells were diluted (cv=cv) to 75,000 cells per ml with complete RPMI media. 100 μl of cells (7500 total cells) were added into each well of a 96 well plate and incubated overnight. 24 hours later, 100 μl of medium or cGAMP or cGAsMP solutions were added to each well. On the fifth day, 20 μl of 5 mg/ml MTT were added to each well. One set of wells with MTT but no cells served as a control. All steps were done aseptically. The wells were incubated for 3.5 hours at 37° C. in a CO2 incubator. Media was carefully removed, taking care not to disturb the cells. No PBS rinse was performed. 150 μl MTT solvent was added. The plate was covered with foil and cells agitated on orbital shaker for 15 min. The absorbance was measured at 590 nm using a plate reader. Each assay was repeated five times. • C.

[11] = test system: IFN-β in CNS cancer cell line SF539; assay: IFN-β induction in SF539; settings: FIG. 7B
[12] = test system: renal cancer cell line A498; assay: NCI60 antitumor screen, A498; settings: single dose of 10 μM
leukemia cell line SR [13] = assay: MTT assay, SR; format: cell-based, human
[14] = test system: IFN-β in control cell lines; assay: IFN-β induction in control cell lines; settings: two control cell lines tested (FIG. 7)

SMILES: Nc1nc2c(ncn2[C@@H]2O[C@@H]3COP(=O)(O)O[C@H]4[C@@H](O)[C@H](n5cnc6c(N)ncnc65)O[C@@H]4COP(=O)(O)O[C@H]3[C@H]2O)c(=O)[nH]1 [3′,5′ cGAMP, reference compound]
- inducing the expression of IFN-β reporter (IFN-β reporter): lower activity
- IFN-β levels in the culture supernatant by ELISA, response (IFN-β [1]): much weaker

SMILES: Nc1nc2c(ncn2[C@@H]2O[C@@H]3COP(=O)(O)O[C@H]4[C@@H](O)[C@H](n5cnc6c(N)ncnc65)O[C@@H]4COP(=O)(O)O[C@@H]2[C@@H]3O)c(=O)[nH]1 [cGAMP, 2′,5′ cGAMP]
- growth inhibition (leukemia cell line SR [2]): effectively inhibited the growth
- induction of IFN-β in mice (IFN-β [3]): rapid responses
- tumor growth and tumor size [4]: effective for both reducing tumor growth and reducing tumor size
- expression of IL-1β (cytokines and chemokines; THP1 cell): does not up-regulate
- expression of IL-8, TNF-α, GROα, IP-10, MCP-1, MCP-2, and RANTES (cytokines and chemokines; THP1 cell (FIG. 4)): up-regulation
- growth suppression, MTT [5]: suppresses the growth
- number of genes up-regulated [6]: over 200 genes
- response of cell line to treatment, MTT [7]: did not respond
- activation of NF-κB (NF-κB): stimulate the activation of NF-κB
- growth inhibition [8]: effectively inhibited the growth
- inducing the expression of IFN-β reporter (IFN-β reporter): very potent
- induction of IFN-β [9]: induces IFN-β
- growth suppression, MTT ([10]; FIG. 6A): suppresses the growth
- antitumor activity, MTT ([10]; FIG. 14A): have antitumor activity
- induction of IFN-β [11]: induces IFN-β
- IFN-β levels in the culture supernatant by ELISA, response (IFN-β [1]): rapid responses
- IFN-β production (IFN-β [1]): can induce
- time at which induction of IFN-β peaked (IFN-β [1]; THP1 cells, ELISA (FIG. 3B)): 8-10 hours post stimulation
- growth inhibition [12]: effectively inhibited the growth
- response of cell line to treatment, MTT (leukemia cell line SR [13]; FIG. 8A (cGAMP), FIG. 8B (IFN-β)): responds strongly
- antitumor activity, MTT (leukemia cell line SR [13]; FIG. 14B): have antitumor activity
- induction of IFN-β [14]: quite low

SMILES: Nc1nc2c(ncn2C2OC3COP(=O)(O)OC4C(COP(O)(=S)OC2C3O)OC(n2cnc3c(N)ncnc32)C4O)c(=O)[nH]1 (stereo not shown) [cGAsMP, 2′5′-cGAsMP]
- potency in inducing IFN-β reporter gene expression, compared (IFN-β reporter; THP1 cells, 0.2 to 25 μg/ml (FIG. 13B)): more potent than cGAMP
- antitumor activity, MTT ([10]; FIG. 14A): have antitumor activity
- impact on cell viability compared with cGAMP ([10]; FIG. 14A): generally a bigger impact on cell viability at lower concentrations
- IFN-β production (IFN-β [1]): can induce
- IFN-β levels relative to cGAMP (IFN-β [1]; THP1 cells, 5 and 25 μg/ml, ELISA (FIG. 13A)): 5-10 times
- antitumor activity, MTT (leukemia cell line SR [13]; FIG. 14B): have antitumor activity
- impact on cell viability compared with cGAMP (leukemia cell line SR [13]; FIG. 14B): generally a bigger impact on cell viability at lower concentrations
